Consider two molecules from US11053196B2, “Substituted indoline derivatives as dengue viral replication inhibitors” (JANSSEN PHARMACEUTICALS, INC., priority 2017, dated 2021).

The pEC50 is the EC50 on a negative log10 scale, so that one unit is a factor of ten.

pEC50: −log10 of the molar value. Bounds are passed on as bounds.

One data set deals with DENV-4 strain H241. Nature of the data set: Tetravalent RT-qPCR assay, serotype 4. It counts as cell-based. Particulars: Dengue virus, DENV4, 72 h; RT-qPCR serotype 4 H241, Vero cells, day 3. As to the method:
(§1) The antiviral activity of the compounds of the invention was tested against DENV-1 strain TC974#666 (NCPV), DENV-2 strain 16681, DENV-3 strain H87 (NCPV) and DENV-4 strain H241 (NCPV) in a RT-qPCR assay. Therefore, Vero cells were infected with either DENV-1, or -2, or -3, or -4 in the presence or absence of test compounds. At day 3 post-infection, the cells were lysed and cell lysates were used to prepare cDNA of both a viral target (the 3′UTR of DENV; Table 2) and a cellular reference gene (1-actin, Table 2). Subsequently, a duplex real time PCR was performed on a Lightcycler480 instrument. The generated Cp value is inversely proportional to the amount of RNA expression of these targets. Inhibition of DENV replication by a test compound results in a shift of Cp's for the 3′UTR gene. On the other hand, if a test compound is toxic to the cells, a similar effect on 1-actin expression will be observed. The comparative ΔΔCp method is used to calculate EC50, which is based on the relative gene expression of the target gene (3′UTR) normalized with the cellular housekeeping gene (1-actin). In addition, CC50 values are determined based on the C, values acquired for the housekeeping gene β-actin.
(§2) The culture medium consisted of minimal essential medium supplemented with 2% of heat-inactivated fetal calf serum, 0.04% gentamycin (50 mg/mL) and 2 mM of L-glutamine. Vero cells, obtained from ECACC, were suspended in culture medium and 75 μL/well was added in 96-well plates (10000 cells/well), which already contain the antiviral compounds. […] In addition, each plate contains wells which are assigned as virus controls (containing cells and virus in the absence of compound) and cell controls (containing cells in the absence of virus and compound). Once the cells were added in the plates, the plates were incubated in a fully humidified incubator (37° C., 5% CO2) until the next day. Dengue viruses serotype-1, 2, 3 and 4 were diluted in order to obtain a Cp of ˜22-24 in the assay. Therefore, 25 μL of virus suspension was added to all the wells containing test compound and to the wells assigned as virus control. In parallel, 25 μL of culture medium was added to the cell controls. Next, the plates were incubated for 3 days in a fully humidified incubator (37° C., 5% CO2). After 3 days, the supernatant was removed from the wells and the cells were washed twice with ice-cold PBS (−100 μL). The cell pellets within the 96-well plates were stored at −80° C. for at least 1 day. Next, RNA was extracted using the Cells-to-CT™ lysis kit, according to the manufacturer's guideline (Life Technologies). The cell lysates can be stored at −80° C. or immediately used in the reverse transcription step.
(§3) In preparation of the reverse transcription step, mix A (table 3A) was prepared and 7.57 μL/well was dispensed in a 96-well plate. After addition of 5 μL of the cell lysates, a five minute denaturation step at 75° C. was performed (table 3B). Afterwards, 7.43 μL of mix B was added (table 3C) and the reverse transcription step was initiated (table 3D) to generate cDNA.
(§4) Finally, a RT-qPCR mix was prepared, mix C (table 4A), and 22.02 μL/well was dispensed in 96-well LightCycler qPCR plates to which 3 μL of cDNA was added and the qPCR was performed according to the conditions in table 4B on a LightCycler 480.
(§5) Using the LightCycler software and an in-house LIMS system, dose response curves for each compound were calculated and the half maximal effective concentration (EC50) and the half maximal cytotoxic concentration (CC50) were determined (Tables 5-8).
A general note: Quantitative PCR measures a nucleic acid by following its amplification.

The next data set relates to DENV-2 strain 16681. Nature of the data set: Tetravalent RT-qPCR assay, serotype 2. It counts as cell-based. Particulars: Dengue virus, DENV2, 72 h; RT-qPCR serotype 2 16681, Vero cells, day 3. How it is done:
as §1, §2, §3, §4, §5

In another data set the test system is DENV-2 16681 strain. Nature of the data set: DENV-2 antiviral assay (eGFP-labeled virus in Vero cells). It counts as cell-based, Dengue virus. Particulars: DENV-2 16681 eGFP, MOI 0.5, 3 days. How it is done: The antiviral activity of all the compounds of the invention was tested against the DENV-2 16681 strain which was labeled with enhanced green fluorescent protein (eGPF). The culture medium consists of minimal essential medium supplemented with 2% of heat-inactivated fetal calf serum, 0.04% gentamycin (50 mg/mL) and 2 mM of L-glutamine. Vero cells, obtained from ECACC, were suspended in culture medium and 25 μL was added to 384-well plates (2500 cells/well), which already contain the antiviral compounds. Typically, these plates contain a 5-fold serial dilution of 9 dilution steps of the test compound at 200 times the final concentration in 100% DMSO (200 nL). […] Finally, each plate contains wells which are assigned as virus controls (containing cells and virus in the absence of compound), cell controls (containing cells in the absence of virus and compound) and medium controls (containing medium in the absence of cells, virus and compounds). To the wells assigned as medium control, 25 μL of culture medium was added instead of Vero cells. Once the cells are added to the plates, the plates were incubated for 30 minutes at room temperature to allow the cells to distribute evenly within the wells. Next, the plates were incubated in a fully humidified incubator (37° C., 5% CO2) until the next day. Then, DENV-2 strain 16681, labeled with eGFP, was added at a multiplicity of infection (MOI) of 0.5.
Therefore, 15 μL of virus suspension was added to all the wells containing test compound and to the wells assigned as virus control. In parallel, 15 μL of culture medium was added to the medium and cell controls. Next, the plates were incubated for 3 days in a fully humidified incubator (37° C., 5% CO2). At the day of the read out, the eGFP fluorescence was measured using an automated fluorescence microscope at 488 nm (blue laser). Using an in-house LIMS system, inhibition dose response curves for each compound were calculated and the half maximal effective concentration (EC50) was determined. Therefore, the percent inhibition (I) for every test concentration is calculated using the following formula: I=100*(ST−SCC)/(SVC−SCC); ST, SCC and SVC are the amount of eGFP signal in the test compound, cell control and virus control wells, respectively. The EC50 represents the concentration of a compound at which the virus replication is inhibited with 50%, as measured by a 50% reduction of the eGFP fluorescent intensity compared to the virus control. The EC50 is calculated using linear interpolation (Table 1).

In a further data set the test system is DENV-1 strain TC974#666. The experiment in a line: Tetravalent RT-qPCR assay, serotype 1. It counts as cell-based. Particulars: Dengue virus, DENV1, 72 h; RT-qPCR serotype 1 TC974#666, Vero cells, day 3. As to the method:
as §1, §2, §3, §4, §5

Another data set concerns DENV-3 strain H87. Nature of the data set: Tetravalent RT-qPCR assay, serotype 3. It counts as cell-based. Particulars: Dengue virus, DENV3, 72 h; RT-qPCR serotype 3 H87, Vero cells, day 3. How it is done: as §1, §2, §3, §4, §5
Data set [1] is described as follows: in vitro. Particulars: African green monkey.
A short description of data set [2]: in vitro. Format: cell-based. Particulars: African green monkey. How it is done:
as §1, with “The comparative ΔΔCp method is used to calculate EC50, which is based on the relative gene expression of the target gene (3′UTR) normalized with the cellular housekeeping gene (1-actin).” left out, “β-actin. […]” for “β-actin.”
as §5

In a further data set the test system is Vero cells. Particulars: African green monkey.

Take `COc1cc(NC(C(=O)N2CCc3cc(F)c(C(F)(F)F)cc32)c2ccc(Cl)cc2)cc(OCCCC(=O)O)c1` (single isomer, unassigned) [Compound 3B, 4-(3-((1-(4-chlorophenyl)-2-(5-fluoro-6-(trifluoromethyl)indolin-1-yl)-2-oxoethyl)amino)-5-methoxyphenoxy)butanoic acid]: the pEC50 in the data set with DENV-4 strain H241 is 7.85; in the data set on DENV-2 strain 16681 it was 10.02; in the data set on DENV-2 16681 strain, 9.92; with DENV-1 strain TC974#666, 10.00; with DENV-3 strain H87 it was 8.82. In “in vitro [1]”, this molecule returned a CC50 of 13 µM. The CC50 at 3 days in the data set “in vitro [2]” is > 2.5 µM.

As to `COc1cc(NC(C(=O)N2CCc3ccc(OC(F)(F)F)cc32)c2ccc(F)cc2OC)cc(OCCCC(=O)O)c1` (single isomer, unassigned) [Compound 6B, 4-(3-((1-(4-fluoro-2-methoxyphenyl)-2-oxo-2-(6-(trifluoromethoxy)indolin-1-yl)ethyl)amino)-5-methoxyphenoxy)butanoic acid], the negative logarithm of the EC50 (pEC50) is 7.54 in the data set with DENV-4 strain H241; 9.39 in the data set on DENV-2 strain 16681; 9.41 with DENV-2 16681 strain; 9.19 in the data set on DENV-1 strain TC974#666; 8.25 in the data set on DENV-3 strain H87. In the data set with Vero cells, the CC50 was 15 µM. Moreover, the CC50 at 3 days in the data set “in vitro [2]” stood at 13 µM.
